The values that follow come from patent publication EP1137632B1, “THIOUREA INHIBITORS OF HERPES VIRUSES” (Wyeth, priority 1998, dated 2000).

Converted amounts (≈) assume the structure as drawn. Where two headings read alike, the source gives them in different places.

One test relates to HSV-1. As to the kind of experiment: HSV antiviral (ELISA) assay in Vero cells. Type of test: cell-based, herpes simplex virus type 1. To be noted: read-out: IC50 (ug/ml) HSV. As for the experimental part: HSV antiviral (ELISA) assay
Vero cells (ATCC #CCL-81) are plated on 96-well tissue culture plates at 3.5x10^4 cells per 100µl tissue culture DMEM (Dulbecco's modified Eagle media) supplemented with 2% fetal bovine serum (FBS) in each well. After overnight incubation @ 37°C (in 5% CO2) and 30 minutes prior to infection with HSV-1 (multiplicity of infection equal to 0.006), cells are either untreated, or treated with test compound (multiple concentrations) or reference standard drug control. After approximately 24 hours post-infection incubation @ 37°C (in 5% CO2), cells are fixed for ELISA assay. The primary antibody is murine anti-HSV glycoprotein D monoclonal primary antibody and the secondary antibody is goat anti-mouse IgG linked to β-galactosidase. Thus the extent of viral replication is determined by assessing β-galactosidase activity by quantifying the generation of the 4-methyl umbelliferone fluorescent cleavage product after addition of the methyl umbelliferyl-β-D-galactoside (Sigma #M1633) substrate on a microfluorimeter (365nm for excitation and 450nm for emission). Antiviral activity (IC50) of the test compound is determined by comparing the flourescence obtained in absence of compound to that obtained in the presence of compound.
A general note: ELISA stands for enzyme-linked immunosorbent assay.

The test system of test [1] is HCMV recombinant mutant virus. Kind of test: microbe, parasite or virus in culture. In kind it is cell-based, human cytomegalovirus. The note with it: Human betaherpesvirus 5, read-out: IC50 (ug/ml) HCMV. The text has this: Microtiter plate assay. Ninety-six well plate cultures of human foreskin fibroblasts are infected in the presence of inhibitor compound with a HCMV recombinant mutant virus whose genome contains the prokaryotic beta-glucuronidase gene (Jefferson, R. A., S. M. Burgess, and D. Hirsh. 1986. Beta-glucuronidase from Escherichia coli as a gene fusion marker. Proc. Natl. Acad. Sci. USA 83:8447-8451) whose expression is controlled by a viral promoter. An example of such a virus is RV145 (Jones, T. R., V. P. Muzithras, and Y. Gluzman. 1991. Replacement mutagenesis of the human cytomegalovirus genome: US10 and US11 gene products are nonessential. J. Virol. 65:5860-5872). Since it is under the control of a viral promoter, beta-glucuronidase expression is an indirect indicator of growth and replication of HCMV in this assay. At 96 hours post-infection, the infected cell lysates are prepared (using 50mM sodium phosphate [pH7.0] containing 0.1 % Triton X-100 and 0.1% sarkosyl) and assayed for beta-glucuronidase activity using a substrate for the enzyme which when cleaved yields either a product which can be measured colorimetrically in a spectrophotometer or fluorescently in a microfluorimeter. Examples of such substrates are p-nitrophenyl-beta-D-glucuronide and methylumbelliferylglucuronide, respectively. The presence of an antiviral compound is indicated by the reduced expression of the HCMV genome resident beta-glucuronidase gene, compared to the absence of inhibitor. […] Data from this assay generated using varying amounts of inhibitor compound is also used to estimate the IC50 of an inhibitor compound.

The next test has as its system VZV strain Ellen. Kind of test: VZV antiviral (ELISA) assay in human foreskin fibroblast cells. In kind it is cell-based, varicella-zoster virus. Here is the method: VZV antiviral (ELISA) assay
For the generation of stock VZV to be used in the assay, VZV strain Ellen (ATCC #VR-1367) is used to infect human foreskin fibroblast (HFF) cells at low multiplicity (less than 0.1) and incubated overnight at 37°C in 5% CO2. After the overnight incubation, the mixture of uninfected and VZV-infected HFF infected cells are then harvested and added to each well of 96-well plates (3.5x10^4 cells in 100 µl DMEM supplemented with 2% FBS) which contain test compound or the reference standard drug control (in 100µl DMEM supplemented with 2% FBS per well). These cells are incubated for three days at 37°C in 5% CO2, then fixed for ELISA assay. The primary antibody is murine anti-VZV glycoprotein II monoclonal antibody (Applied Biosystems, Inc. #13-145-100) and the secondary antibody is goat anti-mouse IgG linked to β-galactosidase. Thus the extent of viral replication is determined by assessing β-galactosidase activity by quantifying the generation of the 4-methyl umbelliferone fluorescent cleavage product after addition of the methyl umbelliferyl-β-D-galactoside (Sigma #M1633) substrate on a microfluorimeter (365nm for excitation and 450nm for emission). Antiviral activity (IC50) of the test compound is determined by comparing the flourescence obtained in absence of compound to that obtained in the presence of compound.

Setting [2] is: Human alphaherpesvirus 1, HSV-1 in Vero cells.
Where [3] appears, read: Human alphaherpesvirus 3; VZV strain Ellen in HFF cells; read-out: IC50 (ug/ml) VZV.
The mark [4] stands for this setting: Human alphaherpesvirus 3, Fibroblast; read-out: % inhibition 10 ug/ml VZV.

`COc1cc(NC(=S)NC(C)c2ccc(C#N)cc2)c(OC)cc1NC(=O)c1ccccc1F` (stereo not shown) [Example 1024, N-(4-{3-[1-(4-Cyano-phenyl)-ethyl]-thioureido}-2,5-dimethoxy-phenyl)-2-fluoro-benzamide]: the IC50 (in the test on HSV-1 (setting [2]); in test [1]; in the test on VZV strain Ellen (setting [3])) was over 10 µg/mL in each case.

Regarding `Cc1cc(NC(=S)NC(C)c2cc3ccccc3o2)ccc1NC(=O)c1ccccc1F` (stereo not shown) [Example 1048, N-{4-[3-(1-Benzofuran-2-yl-ethyl)-thioureido]-2-methyl-phenyl}-2-fluoro-benzamide], the IC50 with HSV-1 (setting [2]) was over 10 µg/mL; in test [1] it was 3.4 µg/mL (≈ 7.6 µM); with VZV strain Ellen (setting [3]), 0.061 µg/mL (≈ 0.136 µM).

`COc1cc(OC)c(NC(=S)Nc2ccc(NC(=O)c3c(F)cccc3F)cc2C)cc1Cl` [Example 347, N-{4-[3-(5-Chloro-2,4-dimethoxy-phenyl)-thioureido]-3-methyl-phenyl}-2,6-difluoro-benzamide]: the IC50 with HSV-1 (setting [2]) was 0.06 µg/mL (≈ 0.122 µM); in test [1], 10 µg/mL (≈ 20.3 µM); in the test with VZV strain Ellen (setting [3]), over 10 µg/mL. The inhibition at 10 µg/mL in the test with VZV strain Ellen (setting [4]) was 34%.

In the case of `O=C(Nc1ccc(NC(=S)NNc2cccc(Cl)c2)cc1)c1ccccc1F` [Example 529, N-[4-({[2-(3-Chloro-phenyl)-hydrazino]-thioxomethyl}-amino)-phenyl]-2-fluoro-benzamide], the IC50 in the test on HSV-1 (setting [2]) was 1 µg/mL (≈ 2.41 µM); in test [1], 8.5 µg/mL (≈ 20.5 µM); in the test with VZV strain Ellen (setting [3]) it was 9 µg/mL (≈ 21.7 µM). The inhibition at 10 µg/mL in the test on VZV strain Ellen (setting [4]) came out at 23%.

`COc1cc(OC)c(NC(=S)Nc2c(Cl)cc(NC(=O)c3ccccc3F)cc2Cl)cc1Cl` [Example 1026, N-{3,5-Dichloro-4-[3-(5-chloro-2,4-dimethoxy-phenyl)-thioureido]-phenyl}-2-fluoro-benzamide]: the values for the IC50 (in the test on HSV-1 (setting [2]); in test [1]; with VZV strain Ellen (setting [3])) were 0.15 µg/mL (≈ 0.284 µM), over 10 µg/mL and over 10 µg/mL, respectively.

`COc1cc(NC(=S)NC(C)c2ccc(F)cc2)c(OC)cc1NC(=O)c1ccccc1F` (stereo not shown) [Example 1025, 2-Fluoro-N-(4-{3-[1-(4-fluoro-phenyl)-ethyl]-thioureido}-2,5-dimethoxy-phenyl)-benzamide]: the IC50 (in the test with HSV-1 (setting [2]); in test [1]; in the test with VZV strain Ellen (setting [3])) was over 10 µg/mL in each case.

Regarding `CC(NC(=S)Nc1ccc(NC(=O)c2ccccc2F)c(C(F)(F)F)c1)c1cc2ccccc2o1` (stereo not shown) [Example 1037, N-{4-[3-(1-Benzofuran-2-yl-ethyl)-thioureido]-2-trifluoromethyl-phenyl}-2-fluoro-benzamide], the IC50 in the test on HSV-1 (setting [2]) is 3.6 µg/mL (≈ 7.18 µM); in test [1], 2 µg/mL (≈ 3.99 µM); in the test with VZV strain Ellen (setting [3]) it was 0.027 µg/mL (≈ 0.0538 µM).

Take `COc1cc(NC(=O)c2ccccc2F)ccc1NC(=S)Nc1ccc(C)c(Cl)c1` [Example 419, N-{4-[3-(3-Chloro-4-methyl-phenyl)-thioureido]-3-methoxy-phenyl}-2-fluoro-benzamide]: the IC50 was 0.2 µg/mL (≈ 0.451 µM) in the test on HSV-1 (setting [2]), over 10 µg/mL in test [1] and over 10 µg/mL in the test on VZV strain Ellen (setting [3]). The inhibition at 10 µg/mL with VZV strain Ellen (setting [4]) was 3%.

Regarding `COc1cc(OC)c(NC(=S)Nc2ccc(NC(=O)c3ccccc3F)c3ccccc23)cc1Cl` [Example 325, N-{4-[3-(5-Chloro-2,4-dimethoxy-phenyl)-thioureido]-naphthalen-1-yl}-2-fluoro-benzamide], the values for the IC50 (in the test with HSV-1 (setting [2]); in test [1]; with VZV strain Ellen (setting [3])) were 1 µg/mL (≈ 1.96 µM), over 10 µg/mL and over 10 µg/mL, respectively. The inhibition at 10 µg/mL in the test with VZV strain Ellen (setting [4]) worked out at 33%.

`CC(NC(=S)Nc1ccc(NC(=O)c2ccccc2F)c(C#N)c1)c1ccc(C#N)cc1` (stereo not shown) [Example 1042, N-(2-Cyano-4-{3-[1-(4-cyano-phenyl)-ethyl]-thioureido}-phenyl)-2-fluoro-benzamide]: the IC50 turned out to be 4.2 µg/mL (≈ 9.47 µM) in the test with HSV-1 (setting [2]), 2.1 µg/mL (≈ 4.73 µM) in test [1] and 0.54 µg/mL (≈ 1.22 µM) in the test with VZV strain Ellen (setting [3]).

Consider `CC(NC(=S)Nc1ccc(NC(=O)c2ccccc2F)c(C(F)(F)F)c1)c1ccc(C#N)cc1` (stereo not shown) [Example 1036, N-(4-{3-[1-(4-Cyano-phenyl)-ethyl]-thioureido}-2-trifluoromethyl-phenyl)-2-fluoro-benzamide], for which the values for the IC50 (in the test on HSV-1 (setting [2]); in test [1]; with VZV strain Ellen (setting [3])) were 4 µg/mL (≈ 8.22 µM), 2.1 µg/mL (≈ 4.32 µM) and 0.31 µg/mL (≈ 0.637 µM), respectively.

In the case of `COc1cc(OC)c(NC(=S)Nc2ccc(NC(=O)c3ccccc3F)cc2C(F)(F)F)cc1Cl` [Example 359, N-{4-[3-(5-Chloro-2,4-dimethoxy-phenyl)-thioureido]-3-trifluoromethyl-phenyl}-2-fluoro-benzamide], the IC50 with HSV-1 (setting [2]) was 0.6 µg/mL (≈ 1.14 µM); in test [1], over 10 µg/mL; in the test on VZV strain Ellen (setting [3]) it was over 10 µg/mL. In the test with VZV strain Ellen (setting [4]), the inhibition at 10 µg/mL amounted to 59%.

With `O=C(Nc1ccc(NC(=S)Nc2ccc(NC(=O)c3ccccc3F)cc2)cc1Cl)c1ccccc1` [Example 401, N-{4-[({[4-(Benzoylamino)-3-chloro-phenyl]-amino}-thioxomethyl)-amino]-phenyl}-2-fluoro-benzamide], the figures for the IC50 (with HSV-1 (setting [2]); in test [1]; with VZV strain Ellen (setting [3])) were over 10 µg/mL, 2.5 µg/mL (≈ 4.82 µM) and over 15 µg/mL, respectively. Also, in the test with VZV strain Ellen (setting [4]), the inhibition at 10 µg/mL is 70%.

`CC(NC(=S)Nc1ccc(NC(=O)c2ccccc2F)c(C(=O)c2ccccc2)c1)c1ccc(F)cc1` (stereo not shown) [Example 1044, N-(2-Benzoyl-4-{3-[1-(4-fluoro-phenyl)-ethyl]-thioureido}-phenyl)-2-fluoro-benzamide]: the IC50 in the test on HSV-1 (setting [2]) is over 10 µg/mL; in test [1], 1.8 µg/mL (≈ 3.49 µM); in the test on VZV strain Ellen (setting [3]) it was 3.3 µg/mL (≈ 6.4 µM).

As for `CC(NC(=S)Nc1ccc(NC(=O)c2ccccc2F)c(C#N)c1)c1cc2ccccc2o1` (stereo not shown) [Example 1043, N-{4-[3-(1-Benzofuran-2-yl-ethyl)-thioureido]-2-cyano-phenyl)-2-fluoro-benzamide], the values for the IC50 (with HSV-1 (setting [2]); in test [1]; with VZV strain Ellen (setting [3])) were over 10 µg/mL, over 10 µg/mL and 0.099 µg/mL (≈ 0.216 µM), respectively.

In the case of `COc1cc(OC)c(NC(=S)Nc2ccc(NC(=O)c3ccccc3F)c(C(=O)O)c2)cc1Cl` [Example 338, 5-[3-(5-Chloro-2,4-dimethoxy-phenyl)-thioureido]-2-(2-fluoro-benzoylamino)-benzoic acid], the IC50 is over 50 µg/mL with HSV-1 (Human alphaherpesvirus 1, Vero); 35 µg/mL (≈ 69.5 µM) in test [1]; over 10 µg/mL in the test with VZV strain Ellen (Human alphaherpesvirus 3, HFF, read-out: IC50 (ug/ml) VZV). Further, in the test on VZV strain Ellen (Human alphaherpesvirus 3, Fibroblast, read-out: % inhibition 10 ug/ml VZV), the inhibition at 10 µg/mL was 13%.

For the compound `CC(NC(=S)Nc1ccc(NC(=O)c2ccccc2F)c(Cl)c1)c1ccc(C#N)cc1` (stereo not shown) [Example 1039, N-(2-Chloro-4-{3-[1-(4-cyano-phenyl)-ethyl]-thioureido}-phenyl)-2-fluoro-benzamide], the IC50 was 7.2 µg/mL (≈ 15.9 µM) with HSV-1 (setting [2]), 1.3 µg/mL (≈ 2.87 µM) in test [1] and 0.25 µg/mL (≈ 0.552 µM) in the test on VZV strain Ellen (setting [3]).

`Cc1cc(NC(=O)c2cc(F)c(F)cc2F)ccc1NC(=S)NC(C)c1ccc(F)cc1` (stereo not shown) [Example 1029, 2,4,5-Trifluoro-N-(4-{3-[1-(4-fluoro-phenyl)-ethyl]-thioureido}-3-methyl-phenyl)-benzamide]: the IC50 is over 10 µg/mL in the test on HSV-1 (setting [2]), over 10 µg/mL in test [1] and 0.53 µg/mL (≈ 1.15 µM) with VZV strain Ellen (setting [3]).

For `Cc1c(C)c(NC(=S)NC(C)c2ccc(F)cc2)c(C)c(C)c1NC(=O)c1ccccc1F` (stereo not shown) [Example 1023, 2-Fluoro-N-(4-{3-[1-(4-fluoro-phenyl)-ethyl]-thioureido}-2,3,5,6-tetramethyl-phenyl)-benzamide], the IC50 in the test with HSV-1 (setting [2]) was over 10 µg/mL; in test [1], 9 µg/mL (≈ 19.2 µM); with VZV strain Ellen (setting [3]), 10 µg/mL (≈ 21.4 µM).
